Laboratory results taken from patent publication US20110269782A1, “USE OF NMDA ACTIVITY ENHANCERS TO TREAT HYPERSOMNIA, REDUCED WAKEFULNESS OR REDUCED VIGILANCE” (priority 2008, published 2011).

Tests used:
[1] = 30 mg/kg, cited from earlier work
rats = experiment: Rat sleep parameters by EEG/EMG telemetry (WAKE, SWS, REM); type: in vivo
Method: In the above experiment rats implanted with a two channel telemetry transmitter to record EEG and EMG simultaneously were dosed with either Merck 1 (nanosuspension 3 mg/kg; 5 ml/kg; p.o.) or vehicle (1.4% W/V hydroxypropylmethylcellulose 0.2% W/V sodium docusate; p.o.) at light on-set in a cross-over design. EEG and EMG recordings were collected for at least 12 hours. Data was converted with LoadDSI.s2s and BatchEEGpower2.s2s scripts (CED) and every 12 s epoch was automatically classified as either WAKE, SWS or REM (PS) sleep with Modulus analysis of sleep v7.xlt. Statistical analysis was done with Student's t-test for paired data. REM latency was defined as the first>1 min REM bout.
Similar data is shown for D-amino acid oxidase inhibitor 4H-furo[3,2-b]pyrrole-5-carboxylic acid (Merck 2) in FIG. 3 and D-serine in FIG. 4 at 100 mg/kg. In this experiment rats implanted with a two channel telemetry transmitter to record EEG and EMG simultaneously were dosed with either drug (30, 100, 300 mg/kg d-serine or 25 mg/kg Merck 2) or vehicle (water or 0.5% MC) intraperitoneally at light on-set in a cross-over design. EEG and EMG recordings were collected for at least 12 hours. Data was converted with LoadDSI.s2s and BatchEEGpower2.s2 s scripts (CED) and every 12 s epoch was automatically classified as either WAKE, SWS or REM (PS) sleep with Modulus analysis of sleep v5 REM incl entries.XLT. Preliminary statistical analysis was done with Student's t-test for paired data. Significance level p<0.05.
(§1) Rats implanted with a two channel telemetry transmitter to record EEG and EMG simultaneously were dosed acutely with either Merck 3 (5 mg/kg; i.p.) or vehicle (distilled water; i.p.) at light onset in a cross-over design. EEB and EMG recordings were collected for at least 12 hours. Data was converted with LoadDSI.s2s and BatchEEGpower2.s2s scripts (CED) and every 12 s epoch was automatically classified as either WAKE, SWS or REM (PS) sleep and Modulus analysis of sleep v7 REM incl entries and tot.xlt. Preliminary statistical analysis was done with Student's t-test for paired data. Significance level p<0.05.
as §1, with “3 (25” for “3 (5”, “design. EEG” for “design. EEB”, “sleep with” for “sleep and”, “sleep v6” for “sleep v7”

[2] = 25 mg/kg i.p., first four hours

Question: Which results are given for `O=C(N[C@@H](c1ccccc1)[C@@H]1CCCCN1)c1cccc(C(F)(F)F)c1Cl` [SSR504734]?
Answer: sleep parameters 24 h after drug challenge ([1]; 24 h after drug challenge): returned to control levels; duration of wakefulness ([1]; effect only for the first two hours): increased; latency time to onset of the first episode of PS [1]: increased latency time; paradoxical sleep (PS) [1]: long-lasting reduction

Question: Which REM latency (rats; 3 mg/kg p.o.) does the source give for `O=C(NCC1(CC2CC2)CCC(S(=O)(=O)CC2CC2)CC1)c1ccc(Cl)cc1Cl` (centres unmarked) [Merck 1, 2,4-dichloro-N-(4-cyclopropylmethane-sulfonyl-1-cyclopropylmethylcyclohexylmethyl)benzamide] here?
Answer: significant increase

Question: And the “decrease in REM sleep (mean±SEM)” value (rats; 3 mg/kg p.o., significant)?
Answer: 54±7%

Question: And the “decrease in the number of entries into REM” value (rats; 3 mg/kg p.o., significant)?
Answer: 45±9%

Question: And the “decrease in the number of entries into SWS” value (rats; 3 mg/kg p.o., significant)?
Answer: 26±8%

Question: What about the “increase in time spent in WAKE” value (rats; 3 mg/kg p.o., trend, p=0.06) of the same molecule?
Answer: 93±43%

Question: Which “latency to REM sleep” value (rats; 5 mg/kg i.p.) does the source give for `O=C(O)c1cc2sccc2[nH]1` [Merck 3, 4H-thieno[3,2-b]pyrrole-5-carboxylic acid] here?
Answer: significantly increased

Question: And the “bout duration of SWS” value (rats; 5 mg/kg i.p., 7 to 12 h time period)?
Answer: significantly reduced

Question: What about the time spent awake (rats; 5 mg/kg i.p., first four hours after dosing) of the same molecule?
Answer: significantly increased

Question: What about the “latency to REM” value (rats; 25 mg/kg i.p.) of the same molecule?
Answer: unaltered

Question: And the “latency to SWS” value (rats; 25 mg/kg i.p.)?
Answer: unaltered

Question: And the “wakefulness compared to the control” value (rats; 25 mg/kg i.p., first 4 h)?
Answer: significantly more awake

Question: And the “time spent in REM” value (rats; [2])?
Answer: decrease

Question: What about the “time spent in SWS” value (rats; [2]) of the same molecule?
Answer: decrease
